Laboratory results: patent US8486975B2, “Non-nucleoside reverse transcriptase inhibitors” (Merck Canada Inc., priority 2010, dated 2013)

Assays:
wild-type HIV-1 = assay: Spread assay: inhibition of acute HIV-1 infection of T-lymphoid cells (wild-type); format: cell-based
Procedure: Assays for the inhibition of acute HIV-1 infection of T-lymphoid cells (alternatively referred to herein as the “spread assay”) were conducted in accordance with Vacca, J. P. et al., Proc. Natl. Acad. Sci. USA 1994, 91: 4096. […] The compounds were also tested using a variant of the assay using HIV strains containing the K103N and Y181C mutants, and found to be less than 20-fold shifted relative to wild-type in all cases.

HIV-1 RT enzyme (WT) = HIV-1 RT enzyme (WT) (Human immunodeficiency virus type 1 group M subtype B, UniProt P04585); assay: ECL assay for inhibition of HIV reverse transcriptase; format: biochemical; settings: 100 nM compound; wild-type RT
Procedure: An assay to determine the in vitro inhibition of HIV reverse transcriptase by compounds of the present invention was conducted as follows: HIV-1 RT enzyme (0.1 nM) was combined with inhibitor or DMSO (10%) in assay buffer (50 mM Tris-HCl, pH 7.8, 1 mM dithiothreitol, 6 mM MgCl2, 80 mM KCl, 0.025% CHAPS, 0.1 mM EGTA), and the mixture preincubated for 30 minutes at room temperature in microtiter plates (Corning Costar #3365). 50 μL reaction mixtures were initiated with a combination of primer-template substrate (5 nM final concentration) and dNTPs (0.6 μM dNTPs, 20 nM Ruthenium-dUTP). The heterodimeric nucleic acid substrate was generated by annealing the DNA primer biotinylated-pD500 (obtained from Integrated DNA Technologies) to t500, a 500 nucleotide RNA template created by in vitro transcription (see Shaw-Reid et al., J. Biol. Chem., 278: 2777-2780). After a 90 minute incubation at 37° C., reactions were quenched by 60 μL of quenching buffer containing 0.05 M EDTA, 0.7% BSA, 0.07% Tween-20 and 0.017% sodium azide in PBS. […] The plate is then left at room temperature for 1 hour, after which it is washed 3 times with 200 μL per well of PBS. 150 μL of 1× read buffer T (MSD) is added and the plate read on the Sector Imager 6000 (MSD).

Row | SMILES | Spread (WT) CIC95 (nM) (50% NHS) (wild-type HIV-1) | inhibition at 0.1 µM (HIV-1 RT enzyme (WT)) [%] | Spread (WT) CIC95 (nM) (10% FBS) (wild-type HIV-1)
1 | Cn1c(Cn2ccc(Br)c(Oc3cc(Cl)cc(C#N)c3)c2=O)n[nH]c1=O [Example 4-1, 3-({4-Bromo-1-[(4-methyl-5-oxo-4,5-dihydro-1H-1,2,4-triazol-3-yl)methyl]-2-oxo-1,2-dihydropyridin-3-yl}oxy)-5-chlorobenzonitrile] | 12 | 90 | –
2 | CCn1c(Cn2ccc(C(F)(F)F)c(Oc3cc(Cl)cc(C#N)c3)c2=O)n[nH]c1=O [Example 2-1, 3-Chloro-5-({1-[(4-ethyl-5-oxo-4,5-dihydro-1H-1,2,4-triazol-3-yl)methyl]-2-oxo-4-(trifluoromethyl)-1,2-dihydropyridin-3-yl}oxy)benzonitrile] | 26 | 75 | –
3 | Cn1c(Cn2ccc(C(F)(F)F)c(Oc3cc(Cl)cc(C#N)c3)c2=O)n[nH]c1=O [Example 1-1, 3-Chloro-5-({1-[(4-methyl-5-oxo-4,5-dihydro-1H-1,2,4-triazol-3-yl)methyl]-2-oxo-4-(trifluoromethyl)-1,2-dihydropyridin-3-yl}oxy)benzonitrile] | 19 | 85 | –
4 | Cn1c(Cn2ccc(C(F)(F)F)c(Oc3cc(C#N)cc(C(F)F)c3)c2=O)n[nH]c1=O [Example 8-1, 3-(Difluoromethyl)-5-({1-[(4-methyl-5-oxo-4,5-dihydro-1H-1,2,4-triazol-3-yl)methyl]-2-oxo-4-(trifluoromethyl)-1,2-dihydropyridin-3-yl}oxy)benzonitrile] | – | 75 | 7.3
5 | Cn1c(Cn2ccc(C(C)(F)F)c(Oc3cc(Cl)cc(C#N)c3)c2=O)n[nH]c1=O [Example 5-1, 3-Chloro-5-({4-(1,1-difluoroethyl)-1-[(4-methyl-5-oxo-4,5-dihydro-1H-1,2,4-triazol-3-yl)methyl]-2-oxo-1,2-dihydropyridin-3-yl}oxy)benzonitrile] | 10 | 75 | –
6 | Cn1c(Cn2ccc(Cl)c(Oc3cc(Cl)cc(C#N)c3)c2=O)n[nH]c1=O [Example 3-1, 3-Chloro-5-({4-chloro-1-[(4-methyl-5-oxo-4,5-dihydro-1H-1,2,4-triazol-3-yl)methyl]-2-oxo-1,2-dihydropyridin-3-yl}oxy)benzonitrile] | 15 | 75 | –
7 | Cn1c(Cn2cc(Br)c(C(F)(F)F)c(Oc3cc(Cl)cc(C#N)c3)c2=O)n[nH]c1=O [Example 7-1, 3-({5-Bromo-1-[(4-methyl-5-oxo-4,5-dihydro-1H-1,2,4-triazol-3-yl)methyl]-2-oxo-4-(trifluoromethyl)-1,2-dihydropyridin-3-yl}oxy)-5-chlorobenzonitrile] | 23 | 77 | –
8 | Cn1c(Cn2cc(Br)c(Cl)c(Oc3cc(Cl)cc(C#N)c3)c2=O)n[nH]c1=O [Example 6-1, 3-({5-Bromo-4-chloro-1-[(4-methyl-5-oxo-4,5-dihydro-lH-l,2,4-triazol-3-yl)methyl]-2-oxo-1,2-dihydropyridin-3-yl}oxy)-5-chlorobenzonitrile] | – | 90 | 5.1
